Test results: patent US20190135818A1 (SHANGHAI INSTITUTE OF MATERIA MEDICA, CHINESE ACADEMY OF …, priority 2016, published 2019)

Tests used:
FGFR1 = target: T1, FGFR1 (Homo sapiens, UniProt P11362); test: FGFR kinase inhibitory activity experiment (ELISA, Poly(Glu,Tyr)4:1 substrate); assay type: biochemical; details: kinase recombinant protein FGFR1, ATP 5 μM
T1 construct: The reaction was initiated by addition of FGFR kinase domain recombinant protein diluted with 49 μL of reaction buffer; purchased Millipore 14-482
Method: Precision electronic balance (Sartotius, Cat. No. BP210D), adjustable wavelength microplate reader (Molecular Device, Cat. No. SpectraMax 190).
After the liquid was removed from the wells, the plate was washed for three times with 200 μL/well of T-PBS (PBS containing 0.1% Tween-20) for 5 minutes each time. The enzyme plate was dried at 37° C. in a dryer for 1-2 hours.
50 μL ATP solution diluted with reaction buffer (50 mM HEPES pH 7.4, 50 mM MgCl2, 0.5 mM MnCl2, 0.2 mM Na3VO4, 1 mM DTT) was added into each well at a 5 μM final concentration. The compounds were diluted to appropriate concentration in DMSO, 1 μL/well or containing the corresponding concentrations of DMSO (negative control wells). The reaction was initiated by addition of FGFR kinase domain recombinant protein diluted with 49 μL of reaction buffer. Two control wells without enzyme were set in each experiment. The plate was placed on a shaker (100 rpm) at 37° C. for 1 hour. The plate was washed with T-PBS for three times. 100 μL/well of primary antibody PY99 dilution was added, and incubated at 37° C. for 0.5 hour on a shaker (100 rpm). The plate was washed with T-PBS for three times. 100 μL/well of horseradish peroxidase-labeled secondary anti-goat anti-mouse IgG dilution was added and incubated at 37° C. for 0.5 hour on a shaker (100 rpm). The plate was washed with T-PBS for three times. 100 μL/well of 2 mg/mL OPD coloration solution (diluted with 0.1 M citric acid-sodium citrate buffer containing 0.03% H2O2 (pH=5.4)) was added, and incubated in darkness for 1-10 minutes at 25° C. The reaction was quenched with 50 μL/well 2M H2SO4, and read at 490 nm using a tunable microplate microplate reader SPECTRA MAX 190.
The inhibition ratio of the sample was determined by the following formula: […]
(§1) The IC50 values were obtained by four-parameter regression analysis using the software supplied with the microplate reader.

[1] = system: Human acute myeloid leukemia cell line KG1; test: FGFR-dependent tumor cell proliferation inhibition activity test (CCK-8, 72 h); assay type: cell-based
From the text: Human acute myeloid leukemia cell line KG1 (FGFR1 fusion protein expressed in the cytoplasm, FGFR1-dependent tumor cell line) (ATCC, Cat. No. CCL-246), cell culture medium RPMI-1640 (Corning Cellgro, No. 10-040-CVR), fetal bovine serum (Life
Technologies, Cat. No. 10099-141) was purchased from the company; CCK-8 cell counting kit (DOJINDO, Cat. No. FK808). Adjustable wavelength microplate reader (Molecular Device, Cat. No. SpectraMax 190).
The inhibitory effect of the compound on KG1 proliferation was detected by CCK-8 Cell Counting Kit (Dojindo): Logarithmic growth phase cells were seeded in 96-well culture plate in appropriate density, 90 ul for each well. After cultured overnight, different concentrations of drugs were added and incubated for 72 h, while solvent control well was set (negative control). After the cells were treated by the compound for 72 h, 10 μL of CCK-8 reagent was added to each well. After incubated for 2-4 hours in a 37 □ incubator, the plate was read with SpectraMax 190 microplate reader at wavelength 450 nm.
The inhibition rate of compounds against cell proliferation is calculated by the following formula:
Inhibition rate (%)=(OD negative control well-OD administration well)/OD negative control well×100%.
as §1

T1 sequence (P11362 478-767 limits assumed): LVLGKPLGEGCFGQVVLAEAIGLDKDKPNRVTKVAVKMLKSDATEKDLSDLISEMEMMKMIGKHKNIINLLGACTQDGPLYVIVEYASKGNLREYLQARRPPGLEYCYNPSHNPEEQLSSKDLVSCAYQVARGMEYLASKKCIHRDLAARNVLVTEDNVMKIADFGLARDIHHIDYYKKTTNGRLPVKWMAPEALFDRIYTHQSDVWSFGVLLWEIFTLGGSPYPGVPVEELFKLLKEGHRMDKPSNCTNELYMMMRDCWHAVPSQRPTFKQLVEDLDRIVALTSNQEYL

Row | SMILES | IC50 (FGFR1) [nM] | IC50 ([1]; Homo sapiens, KG-1, KG1 cells) [nM] | IC50 ([1]; KG1 cells) [nM]
1 | Cc1ccc2oc(-c3c4c(N)n[nH]c(=O)c4nn3C3CCC(NC(=O)CN(C)C)CC3)c(C)c2c1 (stereo not shown) [Compound A35, N-{4-[4-amino-3-(3,5-dimethyl-1-benzo-furan-2-yl)-7-carbonyl-6,7-dihydro-2H-pyrazolo[3,4-d]pyridazin-2-yl]cyclohexyl}-N,N-dimethylglycinamide] | < 100 | 100 to 1000 | 
2 | Cc1c(-c2c3c(N)n[nH]c(=O)c3nn2-c2ccccc2)oc2cc(F)ccc12 [Compound A8, 4-amino-3-(6-fluoro-3-methyl-1-benzo-furan-2-yl)-2-phenyl-2,6-dihydro-7H-pyrazolo[3,4-d]pyridazin-7-one] | < 100 | 100 to 1000 | 
3 | Cc1ccc2oc(-c3c4c(N)n[nH]c(=O)c4nn3-c3ccccc3)c(C)c2c1 [Compound A4, 4-amino-3-(3,5-dimethyl-1-benzofuran-2-yl)-2-phenyl-2,6-dihydro-7H-pyrazolo [3,4-d]pyridazine-7-one] |  | 100 to 1000 | 
4 | C=CC(=O)NC1CCC(n2nc3c(=O)[nH]nc(N)c3c2-c2oc3ccc(C)cc3c2C)CC1 (stereo not shown) [Compound A88, N-(4-(4-amino-3-(3,5-dimethylbenzo-furan-2-yl)-7-carbonyl-6,7-dihydro-2H-pyrazolo[3,4-d]pyridazin-2-yl)cyclohexyl)acryloylamide] | < 100 |  | ≤ 100
5 | Cc1ccc2oc(-c3c4c(N)n[nH]c(=O)c4nn3C3CCN(CCN(C)C)CC3)c(C)c2c1 [Compound A36, 4-amino-2-{1-[2-(dimethylamino)ethyl]piperidin-4-yl}-3-(3,5-dimethylbenzofuran-2-yl)-2H-pyrazolo[3,4-d]pyridazin-7(6H)-one] | < 100 |  | 
6 | C=CC(=O)N1CCC(n2nc3c(=O)[nH]nc(N)c3c2-c2oc3ccc(F)cc3c2C)CC1 [Compound A80, 2-(1-acryloylpiperidin-4-yl)-4-amino-3-(5-fluoro-3-methylbenzofuran-2-yl)-2,6-dihydro-7H-pyrazolo[3,4-d]pyridazin-7-one] | 100 to 1000 | 100 to 1000 | 
7 | Cc1ccc2oc(-c3c4c(N)n[nH]c(=O)c4nn3-c3ccc(N(C)CCN(C)C)cc3)c(C)c2c1 [Compound A11, 4-amino-2-(4-{[2-(dimethylamino)ethyl] (methyl)amino}phenyl)-3-(3,5-dimethyl-1-benzofuran-2-yl)-2,6-dihydro-7H-pyrazolo[3,4-d]pyridazin-7-one] | < 100 | 100 to 1000 | 
8 | C=C(F)C(=O)N1CCC(n2nc3c(=O)[nH]nc(N)c3c2-c2oc3ccc(C)cc3c2C)C1 (stereo not shown) [Compound A52, 4-amino-3-(3,5-dimethyl-1-benzofuran-2-yl)-2-[1-(2-fluoroacryloyl)pyrrolidin-3-yl]-2,6-dihydro-7H-pyrazolo[3,4-d] pyridazin-7-one] | < 100 | ≤ 100 | 
9 | Cc1c(-c2c3c(N)n[nH]c(=O)c3nn2C2CCN(C(=O)/C=C/CNC3CC3)CC2)oc2ccc(Cl)cc12 [Compound A56, 4-amino-3-(5-chloro-3-methyl-1-benzo-furan-2-yl)-2-{1-[(2E)-4-(cyclopropyl-amino)but-2-enoyl]piperidin-4-yl}-2,6-dihydro-7H-pyrazolo[3,4-d]pyridazin-7-one] | < 100 |  | 
10 | C=CC(=O)N1CCC(n2nc3c(=O)[nH]nc(N)c3c2-c2oc3ccc(C)cc3c2C)C1 (stereo not shown) [Compound A51, 2-(1-acryloylpyrrolidin-3-yl)-4-amino-3-(3,5-dimethyl-1-benzofuran-2-yl)-2,6-dihydro-7H-pyrazolo[3,4-d]pyridazin-7-one] | < 100 | ≤ 100 | 
11 | C=CC(=O)N1CCC(Cn2nc3c(=O)[nH]nc(N)c3c2-c2oc3ccc(C)cc3c2C)CC1 [Compound A38, 2-[(1-acryloylpiperidin-4-yl)methyl]-4-amino-3-(3,5-dimethyl-1-benzofuran-2-yl)-2,6-dihydro-7H-pyrazolo[3,4-d]pyridazin-7-one] | < 100 |  | 

More lines, now with the values ahead:

Row | IC50 (FGFR1) [nM] | IC50 ([1]; Homo sapiens, KG-1, KG1 cells) [nM] | IC50 ([1]; KG1 cells) [nM] | SMILES
12 | < 100 | ≤ 100 |  | C=CC(=O)N1CCC(n2nc3c(=O)[nH]nc(N)c3c2-c2oc3ccc(C)cc3c2C)CC1 [Compound A29, 2-(1-acryloylpiperidin-4-yl)-4-amino-3-(3,5-dimethyl-1-benzofuran-2-yl)-2,6-dihydro-7H-pyrazolo[3,4-d]pyridazin-7-one]
13 | < 100 |  |  | Cc1ccc2oc(-c3c4c(N)n[nH]c(=O)c4nn3C3CCN(C(=O)/C=C/CN4CCC4)CC3)c(C)c2c1 [Compound A31, 4-amino-2-{1-[(2E)-4-(azetidin-1-yl)but-2-enoyl]piperidin-4-yl}-3-(3,5-dimethyl-1-benzofuran-2-yl)-2,6-dihydro-7H-pyrazolo[3,4-d]pyridazin-7-one]
14 | < 100 | ≤ 100 |  | C=CC(=O)N1CCC(n2nc3c(=O)[nH]nc(N)c3c2-c2oc3cc(F)ccc3c2C)CC1 [Compound A83, 2-(1-acryloylpiperidin-4-yl)-4-amino-3-(6-fluoro-3-methylbenzofuran-2-yl)-2,6-dihydro-7H-pyrazole[3,4-d]pyridazine-7-one]
15 | < 100 | ≤ 100 |  | C=CC(=O)N1CCCC(n2nc3c(=O)[nH]nc(N)c3c2-c2oc3ccc(Cl)cc3c2C)C1 (stereo not shown) [Compound A87, 2-(1-acryloylpiperidin-3-yl)-4-amino-3-(5-chloro-3-methylbenzofuran-2-yl)-2,6-dihydro-7H-pyrazolo[3,4-d]pyridazine-7-one]
16 | < 100 | 100 to 1000 |  | Cc1ccc2oc(-c3c4c(N)n[nH]c(=O)c4nn3-c3ccc(NCN(C)C)cc3)c(C)c2c1 [Compound A9, 4-amino-3-(3,5-dimethyl-1-benzofuran-2-yl)-2-(4-{[(dimethylamino)methyl]amino}phenyl)-2,6-dihydro-7H-pyrazolo[3,4-d]pyridazin-7-one]
17 | < 100 | ≤ 100 |  | Cc1ccc2oc(-c3c4c(N)n[nH]c(=O)c4nn3C3CCN(C(=O)/C=C/CN(C)C)CC3)c(C)c2c1 [Compound A30, 4-amino-2-{1-[(2E)-4-(dimethylamino)but-2-enoyl]piperidin-4-yl}-3-(3,5-dimethyl-1-benzofuran-2-yl)-2,6-dihydro-7H-pyrazolo[3,4-d]pyridazin-7-one]
18 | < 100 | ≤ 100 |  | C=CC(=O)N1CCC(n2nc3c(=O)[nH]nc(N)c3c2-c2oc3ccc(C)cc3c2CC)CC1 [Compound A85, 2-(1-acryloylpiperidin-4-yl)-4-amino-3-(3-ethyl-5-methylbenzofuran-2-yl)-2,6-dihydro-7H-pyrazolo[3,4-d]pyridazin-7-one]
19 | < 100 |  |  | C=CC(=O)N1CC(Cn2nc3c(=O)[nH]nc(N)c3c2-c2oc3ccc(C)cc3c2C)C1 [Compound A45, 2-[(1-acryloylazetidin-3-yl)methyl]-4-amino-3-(3,5-dimethyl-1-benzofuran-2-yl)-2,6-dihydro-7H-pyrazolo[3,4-d] pyridazin-7-one]
20 | < 100 |  |  | Cc1ccc2oc(-c3c4c(N)n[nH]c(=O)c4nn3C3CCN(C(=O)/C=C/CN(C)C4CC4)CC3)c(C)c2c1 [Compound A34, 4-amino-2-(1-{(2E)-4-[cyclopropyl (methyl)amino]but-2-enoyl}piperidin-4-yl)-3-(3,5-dimethyl-1-benzofuran-2-yl)-2,6-dihydro-7H-pyrazolo[3,4-d] pyridazin-7-one]
21 | < 100 |  |  | C=CC(=O)Nc1ccc(-n2nc3c(=O)[nH]nc(N)c3c2-c2oc3ccc(C)cc3c2C)cc1N(C)CCN(C)C [Compound A32, N-(4-[4-amino-3-(3,5-dimethyl-1-benzo-furan-2-yl)-7-carbonyl-6,7-dihydro-2H-pyrazolo[3,4-d]pyridazin-2-yl]-2-{[(dimethylamino)ethyl](methyl)amino}phenyl)prop-2-enamide]
